In ChEMBL document CHEMBL4138230, “New estrogen receptor antagonists. 3,20-Dihydroxy-19-norpregna-1,3,5(10)-trienes: Synthesis, molecular modeling, and biological evaluation” (Eur J Med Chem, 2018):
Calls of active or inactive are those of the source. The calls are words filed in the database; no cut-off is given here.

Assays:
[1] = Growth inhibition of human MCF10A cells at <25 uM after 72 hrs by MTT assay relative to control; type: cell-based, MCF-10A; settings: read-out: GI
[2] = biological target: T1, Estrogen receptor (Homo sapiens) (UniProt P03372); assay: Antagonist activity at ERalpha in human MCF7 cells at 5 uM after 24 hrs by luciferase reporter gene assay relative to control; type: cell-based
T1 sequence (whole entry): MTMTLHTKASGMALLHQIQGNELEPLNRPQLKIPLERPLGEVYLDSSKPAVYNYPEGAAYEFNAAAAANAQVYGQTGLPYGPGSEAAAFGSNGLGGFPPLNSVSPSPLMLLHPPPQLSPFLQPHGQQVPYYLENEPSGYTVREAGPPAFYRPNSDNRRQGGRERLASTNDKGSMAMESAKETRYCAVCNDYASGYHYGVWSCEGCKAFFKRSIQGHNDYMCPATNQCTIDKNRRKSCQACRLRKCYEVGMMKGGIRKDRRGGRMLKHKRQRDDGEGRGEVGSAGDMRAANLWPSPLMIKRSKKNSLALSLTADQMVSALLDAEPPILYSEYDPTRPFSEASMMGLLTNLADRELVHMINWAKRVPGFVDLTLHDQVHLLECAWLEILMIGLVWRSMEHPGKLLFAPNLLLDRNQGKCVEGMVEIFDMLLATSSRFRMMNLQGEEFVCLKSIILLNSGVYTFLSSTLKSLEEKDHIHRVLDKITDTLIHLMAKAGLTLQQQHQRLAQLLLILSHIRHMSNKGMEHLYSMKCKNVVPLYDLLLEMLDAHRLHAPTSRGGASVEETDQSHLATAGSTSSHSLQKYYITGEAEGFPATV

[3] = test system: MCF7; assay: Growth inhibition of human MCF7 cells at <25 uM after 72 hrs by MTT assay relative to control; type: functional
[4] = test system: MCF-10A; assay: Growth inhibition of human MCF10A cells after 72 hrs by MTT assay; type: cell-based
[5] = test system: MCF7; assay: cells; settings: Homo sapiens, MCF7, 72 h
Description: Growth inhibition of human MCF7 cells after 72 hrs by MTT assay

inhibition [2] | IC50 [5] | Structure (SMILES) | inhibition at 72 h [1] | growth inhibition (GI) [3] | IC50 [4]
inactive | – | COc1ccc2c(c1)CC[C@@H]1[C@@H]2CC[C@@]2(C)[C@H]1C[C@H]1CCCC[C@]12C(C)=O | < 50% | <50% | –
Active | 4.6 µM | C[C@H](O)[C@@]12CCCC[C@@H]1C[C@H]1[C@@H]3CCc4cc(O)ccc4[C@H]3CC[C@@]12C | – | – | 23 µM
– | 5.3 µM | CC/C(=C(\c1ccccc1)c1ccc(OCCN(C)C)cc1)c1ccccc1 [TAMOXIFEN] | < 50% | – | –
inactive | 4.6 µM | CC(O)C1=CC[C@H]2[C@@H]3CCc4cc(O)ccc4[C@H]3CC[C@]12C (mixture of isomers) | – | – | 19.1 µM
70% | 6.8 µM | C[C@@H](O)[C@@]12CCCC[C@@H]1C[C@H]1[C@@H]3CCc4cc(O)ccc4[C@H]3CC[C@@]12C | < 50% | – | –
Active | 0.21 µM | CC(O)[C@@]12C[C@@H]1C[C@H]1[C@@H]3CCc4cc(O)ccc4[C@H]3CC[C@@]12C (mixture of isomers) | – | – | 3.1 µM
inactive | – | COc1ccc2c(c1)CC[C@@H]1[C@@H]2CC[C@@]2(C)[C@H]1C[C@H]1CCCC[C@]12C(C)O (mixture of isomers) | – | – | –
Active | 0.15 µM | C[C@@H](O)[C@H]1CC[C@H]2[C@@H]3CCc4cc(O)ccc4[C@H]3CC[C@]12C | – | – | 5.9 µM
Active | 15.8 µM | CC(=O)[C@@]12CCCC[C@@H]1C[C@H]1[C@@H]3CCc4cc(O)ccc4[C@H]3CC[C@@]12C | < 50% | – | –

Structure (SMILES) | inhibition [2] | IC50 [5] | inhibition at 72 h [1] | growth inhibition (GI) [3] | IC50 [4]
CC(=O)[C@H]1CC[C@H]2[C@@H]3CCc4cc(O)ccc4[C@H]3CC[C@]12C | inactive | – | < 50% | <50% | –
